EC50 data for 18 compounds are collected here from patent publication US20250059183A1, “PYRIDINE[4,3-D]PYRIMIDINE COMPOUND AS TLR7/8 AGONIST” (SHANGHAI VISONPHARMA CO., LTD., priority 2021, published 2025).

Molecules are shown by their SMILES.

One assay addresses T1, human TLR7 (Homo sapiens, UniProt Q9NYK1).
T1 construct: host or cells: HEK-Blue hTLR7 (HEK293-derived reporter cells)
T1 sequence (Q9NYK1 27-1049): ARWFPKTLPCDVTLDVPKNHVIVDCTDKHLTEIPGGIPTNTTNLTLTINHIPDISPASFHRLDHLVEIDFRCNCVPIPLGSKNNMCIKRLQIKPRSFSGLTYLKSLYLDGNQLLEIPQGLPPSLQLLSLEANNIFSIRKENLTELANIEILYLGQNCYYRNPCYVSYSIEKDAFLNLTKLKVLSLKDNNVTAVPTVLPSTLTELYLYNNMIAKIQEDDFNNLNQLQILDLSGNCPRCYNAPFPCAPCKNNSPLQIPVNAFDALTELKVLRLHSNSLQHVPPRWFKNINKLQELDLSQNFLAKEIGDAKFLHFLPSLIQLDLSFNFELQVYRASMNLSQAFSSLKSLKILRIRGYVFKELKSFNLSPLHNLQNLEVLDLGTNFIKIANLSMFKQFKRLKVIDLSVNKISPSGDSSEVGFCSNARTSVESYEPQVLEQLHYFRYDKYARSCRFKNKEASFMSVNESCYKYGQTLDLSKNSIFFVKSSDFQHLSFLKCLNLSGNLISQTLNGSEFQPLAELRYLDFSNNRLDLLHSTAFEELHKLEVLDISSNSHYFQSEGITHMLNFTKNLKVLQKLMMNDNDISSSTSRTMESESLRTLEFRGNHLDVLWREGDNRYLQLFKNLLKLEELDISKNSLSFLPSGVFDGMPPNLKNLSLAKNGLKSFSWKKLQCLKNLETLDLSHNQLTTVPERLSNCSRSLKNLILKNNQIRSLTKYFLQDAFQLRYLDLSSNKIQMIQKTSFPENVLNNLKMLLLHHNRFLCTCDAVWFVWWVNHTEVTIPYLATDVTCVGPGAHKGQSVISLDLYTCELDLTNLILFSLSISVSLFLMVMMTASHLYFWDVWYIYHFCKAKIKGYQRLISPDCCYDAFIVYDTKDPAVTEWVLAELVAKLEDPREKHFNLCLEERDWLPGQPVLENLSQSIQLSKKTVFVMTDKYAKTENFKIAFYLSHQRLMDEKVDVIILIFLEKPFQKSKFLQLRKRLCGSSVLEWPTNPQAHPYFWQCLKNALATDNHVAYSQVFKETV
Put plainly: HEK-Blue hTLR7 SEAP reporter gene agonist assay. The settings on record: HEK-Blue hTLR7 cells, 16 to 22 hours incubation. It counts as cell-based. In outline: (§1)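 HEK-Blue cells stably expressing human TLR7 or TLR8 carry a SEAP reporter driven by a minimal IFN-β promoter fused to 5×NF-κB and AP-1 sites. Compounds at […] final, 16 to 22 h. SEAP in the medium measured with Quanti-blue at OD650, and EC50 derived.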
(Reporter assays use an easily measured gene product as a stand-in for the process of interest.)

The target of the next assay is T2, human TLR8 (Homo sapiens, UniProt Q9NR97).
T2 construct: host or cells: HEK-Blue hTLR8 (HEK293-derived reporter cells)
T2 sequence (Q9NR97 27-1041): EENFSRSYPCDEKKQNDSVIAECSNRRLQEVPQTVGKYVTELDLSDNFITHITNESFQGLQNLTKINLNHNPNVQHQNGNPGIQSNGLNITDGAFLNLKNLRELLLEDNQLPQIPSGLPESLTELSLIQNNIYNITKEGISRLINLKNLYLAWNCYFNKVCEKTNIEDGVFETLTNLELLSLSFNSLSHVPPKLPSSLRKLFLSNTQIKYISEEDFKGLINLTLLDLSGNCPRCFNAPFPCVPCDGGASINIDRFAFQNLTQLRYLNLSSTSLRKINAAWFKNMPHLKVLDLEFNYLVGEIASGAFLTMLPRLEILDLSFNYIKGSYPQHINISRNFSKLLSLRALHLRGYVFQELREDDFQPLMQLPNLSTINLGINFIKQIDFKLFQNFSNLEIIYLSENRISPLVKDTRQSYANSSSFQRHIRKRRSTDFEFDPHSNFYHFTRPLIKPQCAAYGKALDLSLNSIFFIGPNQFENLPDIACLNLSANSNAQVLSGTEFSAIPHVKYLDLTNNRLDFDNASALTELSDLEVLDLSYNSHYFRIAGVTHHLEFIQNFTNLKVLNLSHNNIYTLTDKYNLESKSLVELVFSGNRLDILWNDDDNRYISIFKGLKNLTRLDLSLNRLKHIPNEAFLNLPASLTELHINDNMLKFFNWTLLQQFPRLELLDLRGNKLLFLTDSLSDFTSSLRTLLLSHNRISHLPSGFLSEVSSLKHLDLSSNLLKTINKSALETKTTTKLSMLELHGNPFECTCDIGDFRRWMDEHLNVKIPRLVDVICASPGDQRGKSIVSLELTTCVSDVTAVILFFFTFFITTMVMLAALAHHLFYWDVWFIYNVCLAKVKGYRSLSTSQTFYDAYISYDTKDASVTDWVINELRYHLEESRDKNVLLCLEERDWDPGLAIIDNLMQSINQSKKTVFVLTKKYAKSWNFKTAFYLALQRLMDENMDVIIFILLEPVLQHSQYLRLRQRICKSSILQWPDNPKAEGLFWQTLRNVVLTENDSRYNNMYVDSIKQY
Kind of assay: HEK-Blue hTLR8 SEAP reporter gene agonist assay. It counts as cell-based. The settings on record: HEK-Blue hTLR8 cells, 16 to 22 hours incubation. In a few lines:
as §1

Usually EC50 stands for the midpoint of the concentration-response curve. A higher EC50 goes with a less potent agent.

In the case of `CCC[C@@H](C)Nc1nc(N)nc2ccn(Cc3ccc(C(=O)N4C5CNCC4C5)cc3)c(=O)c12` [Compound I-161, 6-(4-(3,6-diazabicyclo[3.1.1]heptane-6-carbonyl)benzyl)-2-amino-4-(((R)-pentan-2-yl)amino)pyrido[4,3-d]pyrimidin-5(6H)-one], the EC50 on human TLR7 was 110 nM; on human TLR8, 40 nM.
Taken in the same sequence, the figures for `CCC[C@@H](CO)Nc1nc(N)nc2ccn(Cc3ccc(CN4CCN(C)CC4)cc3OC)c(=O)c12` [Compound I-162, (S)-2-amino-4-((1-hydroxypentan-2-yl)amino)-6-(2-methoxy-4-((4-methylpiperazin-1-yl)methyl)benzyl)pyrido[4,3-d]pyrimidin-5(6H)-one] were 20 nM and 10 nM.
Regarding `CCC[C@@H](COC)Nc1nc(N)nc2ccn(Cc3ccc(CN4CCCC4)cc3OC)c(=O)c12` [Compound I-163, (S)-2-amino-6-(2-methoxy-4-(pyrrolidin-1-ylmethyl)benzyl)-4-((1-methoxypentan-2-yl)amino)pyrido[4,3-d]pyrimidin-5(6H)-one], the values for the EC50 on human TLR7 and on human TLR8 were 30 nM and 70 nM, respectively.
Taken in the same sequence, the figures for `CCCC[C@@H](CO)Nc1nc(N)nc2ccn(Cc3ccc(CN4CCCC4)cc3OC)c(=O)c12` [Compound I-164, (S)-2-amino-4-((1-hydroxyhexan-2-yl)amino)-6-(2-methoxy-4-(pyrrolidin-1-ylmethyl)benzyl)pyrido[4,3-d]pyrimidin-5(6H)-one] were 40 nM and 30 nM.
Turning to `CCC[C@@H](C)Nc1nc(N)nc2ccn(Cc3ccc(CN(CCC)CCO)cc3OC)c(=O)c12` [Compound I-165, (R)-2-amino-6-(4-(((2-hydroxyethyl)(propyl)amino)methyl)-2-methoxybenzyl)-4-(pentan-2-ylamino)pyrido[4,3-d]pyrimidin-5(6H)-one], the values for the concentration giving a half-maximal response (EC50) on human TLR7 and at human TLR8 were 40 nM and 60 nM, respectively.
Taken in the same sequence, the figures for `CCC[C@@H](C)Nc1nc(N)nc2ccn(Cc3ccc(CN(CCO)CCO)cc3OC)c(=O)c12` [Compound I-166, (R)-2-amino-6-(4-((bis(2-hydroxyethyl)amino)methyl)-2-methoxybenzyl)-4-(pentan-2-ylamino)pyrido[4,3-d]pyrimidin-5(6H)-one] were 30 nM and 30 nM.
Taken in the same sequence, the figures for `CCC[C@@H](CO)Nc1nc(N)nc2ccn(Cc3ccc(CN4CCCC4)cc3Cl)c(=O)c12` [Compound I-168, (S)-2-amino-6-(2-chloro-4-(pyrrolidin-1-ylmethyl)benzyl)-4-((1-hydroxypentan-2-yl)amino)pyrido[4,3-d]pyrimidin-5(6H)-one] were 40 nM and 10 nM.
Taken in the same sequence, the figures for `CCC[C@@H](CO)Nc1nc(N)nc2ccn(Cc3ccc(CN4CCCC4)cc3C)c(=O)c12` [Compound I-169, (S)-2-amino-4-((1-hydroxypentan-2-yl)amino)-6-(2-methyl-4-(pyrrolidin-1-ylmethyl)benzyl)pyrido[4,3-d]pyrimidin-5(6H)-one] were 70 nM and 20 nM.
As to `CCC[C@@H](C)Nc1nc(N)nc2ccn(Cc3ccc(CN4CCN(C)CC4)cc3OC)c(=O)c12` [Compound I-179, (R)-2-amino-6-(2-methoxy-4-((4-methylpiperazin-1-yl)methyl)benzyl)-4-(pentan-2-ylamino)pyrido[4,3-d]pyrimidin-5(6H)-one], the EC50 on human TLR7 was found to be 91 nM; on human TLR8, 58 nM.
For `CCC[C@@H](C)Nc1nc(N)nc2ccn(Cc3ccc(C(=O)N4CCNCC4)cc3OC)c(=O)c12` [Compound I-180, (R)-2-amino-6-(2-methoxy-4-(piperazine-1-carbonyl)benzyl)-4-(pentan-2-ylamino)pyrido[4,3-d]pyrimidin-5(6H)-one], in that order: 38 nM and 12 nM.
For `CCC[C@@H](C)Nc1nc(N)nc2ccn(Cc3ccc(C(=O)N4CC5CC(C4)N5)cc3OC)c(=O)c12` [Compound I-181, 6-(4-(3,6-diazabicyclo[3.1.1]heptane-3-carbonyl)-2-methoxybenzyl)-2-amino-4-(((R)-pentan-2-yl)amino)pyrido[4,3-d]pyrimidin-5(6H)-one], in that order: 30 nM and 7 nM.
Taken in the same sequence, the figures for `CCC[C@@H](C)Nc1nc(N)nc2ccn(Cc3ccc(C(=O)N4CCN(C)CC4)cc3OC)c(=O)c12` [Compound I-182, (R)-2-amino-6-(2-methoxy-4-(4-methylpiperazine-1-carbonyl)benzyl)-4-(pentan-2-ylamino)pyrido[4,3-d]pyrimidin-5(6H)-one] were 54 nM and 58 nM.
In the case of `CCC[C@@H](C)Nc1nc(N)nc2ccn(Cc3ccc(C(=O)N4CCN(C(C)C)CC4)cc3OC)c(=O)c12` [Compound I-183, (R)-2-amino-6-(4-(4-isopropylpiperazine-1-carbonyl)-2-methoxybenzyl)-4-(pentan-2-ylamino)pyrido[4,3-d]pyrimidin-5(6H)-one], the EC50 was 91 nM at human TLR7 and 83 nM on human TLR8.
Taken in the same sequence, the figures for `CCC[C@@H](C)Nc1nc(N)nc2ccn(Cc3ccc(CN4CCNCC4)cc3OC)c(=O)c12` [Compound I-184, (R)-2-amino-6-(2-methoxy-4-(piperazin-1-ylmethyl)benzyl)-4-(pentan-2-ylamino)pyrido[4,3-d]pyrimidin-5(6H)-one] were 96 nM and 107 nM.
Taken in the same sequence, the figures for `CCCCNc1nc(N)nc2cc(C)n(Cc3ccc(CN4CCCC4)cc3)c(=O)c12` [Compound I-187, 2-amino-4-(butylamino)-7-methyl-6-(4-(pyrrolidin-1-ylmethyl)benzyl)pyrido[4,3-d]pyrimidin-5(6H)-one] were 145 nM and 64 nM.
Regarding `CCC[C@@H](CO)Nc1nc(N)nc2ccn(Cc3ccc(CN(C)C)cc3OC)c(=O)c12` [Compound I-195, (S)-2-amino-6-(4-((dimethylamino)methyl)-2-methoxybenzyl)-4-((1-hydroxypentan-2-yl)amino)pyrido[4,3-d]pyrimidin-5(6H)-one], the results for the EC50 at human TLR7 and on human TLR8 were 31 nM and 1 nM, respectively.
For `CCC[C@@H](C)Nc1nc(N)nc2ccn(Cc3ccc(CNC)cc3OC)c(=O)c12` [Compound I-198, (R)-2-amino-6-(2-methoxy-4-((methylamino)methyl)benzyl)-4-(pentan-2-ylamino)pyrido[4,3-d]pyrimidin-5(6H)-one], in that order: 100 nM and 5 nM.
Taken in the same sequence, the figures for `CCC[C@@H](CO)Nc1nc(N)nc2ccn(Cc3ccc(C(=O)N4CCN(C)CC4)cc3OC)c(=O)c12` [Compound I-212, (S)-2-amino-4-((1-hydroxypentan-2-yl)amino)-6-(2-methoxy-4-(4-methylpiperazine-1-carbonyl)benzyl)pyrido[4,3-d]pyrimidin-5(6H)-one] were 60 nM and 4 nM.
